Results taken from patent EP0965268B1, “Thermostabilization, osmoprotection, and protection against desiccation of enzymes, cell components and cells by di-glycerol-phosphate” (bitop Aktiengesellschaft für biotechnische Optimierung, priority 1998, dated 1999).

Key:
[1] = molecular target: T1, Desulfovibrio gigas rubredoxin (Megalodesulfovibrio gigas, UniProt P00270); test: Thermal denaturation of rubredoxin, decrease in absorbance at 494 nm at 90°C; type: biochemical; conditions: 30 min incubation of rubredoxin at 90 °C, without solute 73%
T1 construct: Rubredoxin was obtained and purified as described by LeGall and Dragoni [15] from Desulfovibrio gigas; made in house; host or cells: Desulfovibrio gigas (natural source, not recombinant)
T1 sequence (P00270 whole entry): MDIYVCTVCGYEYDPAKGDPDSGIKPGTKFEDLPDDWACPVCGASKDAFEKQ
Experimental: Rubredoxin was obtained and purified as described by LeGall and Dragoni from Desulfovibrio gigas. This protein was then stored at -20°C in 10 mM Tris-HCl buffer at pH 7.6.
The most informative feature of the UV-Vis absorption spectrum of rubredoxins comes from the signals with maxima centered at 380, 494, and 570 nm which are attributed to metal to ligand transitions. These bands are bleached when rubredoxin undergoes de naturation.
In the experiments designed to evaluate denaturation caused by thermal stress, rubredoxin was prepared at a concentration of 84 µg . ml^-1 in 10 mM Tris-HCI buffer pH 7.6 and the incubation mixtures, with or without the additions of solutes, were placed in 400 µl quartz cells in a Beckman spectrophotometer with a thermostated cell compartment. The protein was subjected to a temperature of 90°C and the decrease in the absorbance at 494 nm was monitored as a function of time.
The protective effect of 1,1'-di-glycerol-phosphate (at a concentration of 100 mM) was compared with that of potassium phosphate (100 mM) and glycerol (200 mM) (Figure 4). After 30 min incubation of rubredoxin at 90 °C the absorbance decreased by only 8.5% when 1,1'-di-glycerol-phosphate was present, whereas in the absence of any solute a decrease of 73% was observed. […] In fact, the decreases in absorption are as high as 61 and 58 % in the presence of 200 mM glycerol or 100 mM potassium phosphate, respectively.

[2] = molecular target: T2, rabbit muscle lactate dehydrogenase (LDH) (Oryctolagus cuniculus, UniProt P13491); test: Thermostability of lactate dehydrogenase, residual activity after incubation at 50°C; type: biochemical; conditions: 100 mM solute; 10 min of incubation at 50°C; without solute 30%
T2 construct: Lactate dehydrogenase, LDH (Sigma Type III, rabbit muscle), purchased as a suspension in ammonium sulphate; purchased Sigma Type III; host or cells: rabbit muscle
Experimental: (§1) Lactate dehydrogenase, LDH (Sigma Type III, rabbit muscle), purchased as a suspension in ammonium sulphate, was centrifuged, the supernatant was discarded, and the enzyme was suspended in 50 mM potassium phosphate pH 7.5. Alcohol dehydrogenase (Sigma, baker's yeast) was obtained in the lyophilized form and used without further purification. Enzymes were assayed using a Beckman spectrophotometer with a the rmostated cell compartment at 30°C.
(§2) In the experiments where thermal stress was imposed, enzymes were prepared at a concentration of 50 mg . ml^-1 in 20 mM potassium phosphate buffer, and the reaction mixtures were placed in Eppendorf tubes, incubated in a water-bath at 50°C for 10 minutes, cooled in an ice-bath and assayed immediately under standard conditions.
(§3) The effect of 1,1'-di-glycerol-phosphate on the thermostability of rabbit muscle LDH and baker's yeast ADH was compared to that of glycerol, a compound that is generally described as an enzyme protector. The percentage of residual activity in relation to pre-incubation activity, measured after 10 min of incubation at 50°C, is shown in Figure 5, for rabbit muscle LDH (A) and yeast ADH (B).
The effect of the concentration of 1,1'-di-glycerol-phosphate on the thermal stability of LDH was also monitored, and the results obtained after 10 min incubation at 50°C are shown in Figure 6. […]

[3] = molecular target: T3, yeast alcohol dehydrogenase (ADH) (Saccharomyces cerevisiae, UniProt P00330); test: Thermostability of alcohol dehydrogenase, residual activity after incubation at 50°C; type: biochemical, baker's yeast; conditions: 10 min incubation at 50°C, without solute 33%
T3 construct: Alcohol dehydrogenase (Sigma, baker's yeast) was obtained in the lyophilized form and used without further purification; purchased Sigma; host or cells: baker's yeast
T3 sequence (P00330 2-348 limits assumed): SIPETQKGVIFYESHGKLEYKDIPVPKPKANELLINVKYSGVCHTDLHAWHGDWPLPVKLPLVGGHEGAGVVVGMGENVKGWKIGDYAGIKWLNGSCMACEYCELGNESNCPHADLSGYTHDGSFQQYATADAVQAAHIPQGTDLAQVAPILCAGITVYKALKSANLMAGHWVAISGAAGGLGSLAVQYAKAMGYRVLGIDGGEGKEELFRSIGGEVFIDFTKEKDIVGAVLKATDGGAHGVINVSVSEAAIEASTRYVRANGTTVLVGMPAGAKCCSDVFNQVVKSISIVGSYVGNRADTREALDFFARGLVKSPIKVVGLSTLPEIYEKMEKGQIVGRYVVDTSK
Experimental: as §1, §2, §3

Row | Structure (SMILES) | decrease in absorbance at 494 nm ([1]; 100 mM solute) [%] | residual activity in relation to pre-incubation activity [2] [%] | activity retained (of the initial activity) ([3]; 100 mM solute) [%] | decrease in absorbance at 494 nm ([1]; 200 mM solute) [%] | activity retained (of the initial activity) ([3]; 200 mM solute) [%]
1 | O=P(O)(OCC(O)CO)OCC(O)CO (stereo not shown) [1,1'-di-glycerol-phosphate] | 8.5 | 85 | 88 |  | 
2 | OCC(O)CO [glycerol] |  | 37 |  | 61 | 31
3 | O=P(O)(O)O [potassium phosphate] | 58 |  |  |  | 
